Measured values reported in the supplement of paper PMC11061612.

Columns and labels:
Experiment in all cases: combination Emax (second highest fraction inhibited in the dose matrix, 72 h); higher = more inhibition; extreme values may be limits of the assay
[1] = system: MOLT-16 (T-Lymphoblastic Leukemia)
Summary of the method: (§1)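 Bliss excess equals the observed combination effect minus the expected value EA + EB − EA·EB, where EA and EB are the effects of each agent alone. Combination Emax is the second-highest inhibition within the matrix. Inhibition was scaled from CellTiter-Glo 2.0 luminescence, with 0 set by vehicle wells and 1 by blank wells, after 72 hours of two-drug dosing of cells plated in 1536-well plates.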

[2] = system: KYSE-180 (Esophageal Squamous Cell Carcinoma)
Summary of the method: as §1

[3] = system: DND-41 (T-Lymphoblastic Leukemia)
Summary of the method: as §1

[4] = system: NCI-H2818 (Mesothelioma)
Summary of the method: as §1

[5] = system: MFM-223 (Breast Carcinoma)
Summary of the method: as §1

[6] = system: LN-18 (Glioblastoma)
Summary of the method: as §1

[7] = system: L-540 (Hodgkin's Lymphoma)
Summary of the method: as §1

[8] = system: U251 (Low Grade Glioma)
Summary of the method: as §1

[9] = system: TC-71 (Ewing's Sarcoma)
Summary of the method: as §1

[10] = system: PANC-08-13 (Pancreatic Carcinoma)
Summary of the method: as §1

[11] = system: SW1417 (Colorectal Carcinoma)
Summary of the method: as §1

[12] = system: BFTC-905 (Bladder Carcinoma)
Summary of the method: as §1

[13] = system: P12-ICHIKAWA (T-Lymphoblastic Leukemia)
Summary of the method: as §1

[14] = system: ES1 (Ewing's Sarcoma)
Summary of the method: as §1

[15] = system: TOV-112D (Ovarian Carcinoma)
Summary of the method: as §1

[16] = system: MEL-JUSO (Melanoma)
Summary of the method: as §1

[17] = system: COLO-678 (Colorectal Carcinoma)
Summary of the method: as §1

[18] = system: WIL2-NS (Non-Cancerous)
Summary of the method: as §1

[19] = system: EVSA-T (Breast Carcinoma)
Summary of the method: as §1

[20] = system: KCL-22 (Chronic Myelogenous Leukemia)
Summary of the method: as §1

| Compound | combination Emax [1] | combination Emax [2] | combination Emax [3] | combination Emax [4] | combination Emax [5] | combination Emax [6] | combination Emax [7] | combination Emax [8] | combination Emax [9] | combination Emax [10] | combination Emax [11] | combination Emax [12] | combination Emax [13] | combination Emax [14] | combination Emax [15] | combination Emax [16] | combination Emax [17] | combination Emax [18] | combination Emax [19] | combination Emax [20] |
| --- | --- | --- | --- | --- | --- | --- | --- | --- | --- | --- | --- | --- | --- | --- | --- | --- | --- | --- | --- | --- |
| NC1(C(=O)N[C@@H](CCO)c2ccc(Cl)cc2)CCN(c2ncnc3[nH]ccc23)CC1 [Capivasertib] + CC(C)n1c(=O)n(C)c2cnc3cc(F)c(-c4ccc(OCCCN5CCCCC5)nc4)cc3c21 [AZD1390] (first compound max 10 µM, 7x7, partner max 0.3 µM) | 0.719 | 0.488 | 0.165 | 0.224 | 0.864 | 0.432 | 0.265 | 0.284 | 0.263 | 0.242 | 0.276 | 0.221 | 0.489 | 0.452 | 0.175 | 0.164 | 0.146 | 0.682 | 0.975 | 0.266 |
| CN(CCO)CC[C@H](CSc1ccccc1)Nc1ccc(S(=O)(=O)NC(=O)c2ccc(N3CCC([C@@H](O)c4ccccc4-c4ccc(Cl)cc4)CC3)cc2)cc1S(=O)(=O)C(F)(F)F [AZD4320] + CN(C)CCCOc1ccc(-c2ccc3ncc4c(c3c2)n(C2CCOCC2)c(=O)n4C)cn1 [AZD0156] (first compound max 1 µM, 7x7, partner max 1 µM) | 0.989 | 0.112 | 1 | 0.268 | 0.199 | 0.222 | 0.224 | 0.185 | 0.659 | 0.352 | 0.742 | 0.15 | 1 | 0.226 | 0.222 | 0.212 | 0.0581 | 0.22 | 0.163 | 0.361 |
| CN(CCO)CC[C@H](CSc1ccccc1)Nc1ccc(S(=O)(=O)NC(=O)c2ccc(N3CCC([C@@H](O)c4ccccc4-c4ccc(Cl)cc4)CC3)cc2)cc1S(=O)(=O)C(F)(F)F [AZD4320] + C1CN(CCC1(C(=O)N[C@@H](CCO)C2=CC=C(C=C2)Cl)N)C3=NC=NC4=C3C=CN4 [Capivasertib] (first compound max 1 µM, 7x7, partner max 3 µM) | 1 | 0.32 | 1 | 0.184 | 0.741 | 0.298 | 0.279 | 0.181 | 0.544 | 0.422 | 0.709 | 0.0682 | 1 | 0.246 | 0.131 | 0.139 | 0.0393 | 0.535 | 0.924 | 0.35 |
| Cc1c2c(nn1C)CSCc1cc(n(C)n1)CSc1cc(c3ccccc3c1)OCCCc1c(C(=O)O)n(C)c3c-2c(Cl)ccc13 [AZD5991] + Cn1cnc2c(F)c(Nc3ccc(Br)cc3Cl)c(C(=O)NOCCO)cc21 [Selumetinib] (first compound max 1 µM, 7x7, partner max 3 µM) | 1 | 0.848 | 0.181 | 0.293 | 0.282 | 0.315 | 1 | 0.274 | 0.578 | 0.208 | 0.527 | 0.751 | 1 | 0.777 | 0.414 | 0.669 | 0.423 | 0.236 | 1 | 0.959 |
| NC1(C(=O)N[C@@H](CCO)c2ccc(Cl)cc2)CCN(c2ncnc3[nH]ccc23)CC1 [Capivasertib] + C[C@@H]1COCCN1C2=NC(=NC(=C2)C3(CC3)[S@](=N)(=O)C)C4=C5C=CNC5=NC=C4 [AZD6738] (first compound max 10 µM, 7x7, partner max 10 µM) | 1 | 0.554 | 0.886 | 0.437 | 0.888 | 0.846 | 0.94 | 0.444 | 0.959 | 0.478 | 0.497 | 0.623 | 1 | 0.972 | 0.718 | 0.524 | 0.237 | 0.919 | 0.959 | 0.979 |
| C=CCn1c(=O)c2cnc(Nc3ccc(N4CCN(C)CC4)cc3)nc2n1-c1cccc(C(C)(C)O)n1 [AZD1775] + C1CN(CCC1(C(=O)N[C@@H](CCO)C2=CC=C(C=C2)Cl)N)C3=NC=NC4=C3C=CN4 [Capivasertib] (first compound max 3 µM, partner max 3 µM) | 1 | 0.8 | 0.899 | 0.493 | 0.711 | 0.581 | 0.862 | 0.671 | 0.92 | 0.544 | 0.544 | 0.904 | 1 | 0.797 | 0.889 | 0.442 | 0.51 | 0.953 | 0.958 | 0.962 |
| CC(=O)Nc1cccc(-n2c(=O)n(C3CC3)c(=O)c3c(Nc4ccc(I)cc4F)n(C)c(=O)c(C)c32)c1 [Trametinib] + Cc1nc(-c2cn3c(n2)-c2ccc(-c4cnn(C(C)(C)C(N)=O)c4)cc2OCC3)n(C(C)C)n1 [Taselisib] (first compound max 1 µM, 7x7, partner max 10 µM) | 0.776 | 0.638 | 0.369 | 0.428 | 0.865 | 0.847 | 0.36 | 0.848 | 0.714 | 0.655 | 0.775 | 1 | 0.658 | 0.651 | 0.641 | 0.863 | 0.608 | 0.723 | 0.947 | 0.801 |
| NC1(C(=O)N[C@@H](CCO)c2ccc(Cl)cc2)CCN(c2ncnc3[nH]ccc23)CC1 [Capivasertib] + CC(=O)c1c(C)c2cnc(Nc3ccc(N4CCNCC4)cn3)nc2n(C2CCCC2)c1=O [Palbociclib] (first compound max 10 µM, 7x7, partner max 10 µM) | 0.924 | 0.572 | 0.462 | 0.316 | 0.882 | 0.731 | 0.214 | 0.441 | 0.511 | 0.308 | 0.269 | 0.397 | 0.739 | 0.765 | 0.542 | 0.518 | 0.354 | 0.849 | 0.942 | 0.612 |
| Cc1c2c(nn1C)CSCc1cc(n(C)n1)CSc1cc(c3ccccc3c1)OCCCc1c(C(=O)O)n(C)c3c-2c(Cl)ccc13 [AZD5991] + CN(C)CCCOc1ccc(-c2ccc3ncc4c(c3c2)n(C2CCOCC2)c(=O)n4C)cn1 [AZD0156] (first compound max 1 µM, 7x7, partner max 1 µM) | 1 | 0.934 | 0.158 | 0.355 | 0.238 | 0.514 | 1 | 0.607 | 0.463 | 0.211 | 0.263 | 0.273 | 0.994 | 0.753 | 0.551 | 0.439 | 0.152 | 0.388 | 1 | 0.926 |
| Cc1nc(Nc2ncc(C(=O)Nc3c(C)cccc3Cl)s2)cc(N2CCN(CCO)CC2)n1 [Dasatinib] + CC(=O)Nc1cccc(-n2c(=O)n(C3CC3)c(=O)c3c(Nc4ccc(I)cc4F)n(C)c(=O)c(C)c32)c1 [Trametinib] (first compound max 2 µM, 7x7, partner max 1 µM) | 0.326 | 0.411 | 0.263 | 0.582 | 0.561 | 0.353 | 0.148 | 0.781 | 0.146 | 0.738 | 0.834 | 0.863 | 0.517 | 0.0713 | 0.749 | 0.497 | 0.559 | 0.721 | 0.176 | 0.93 |
| CC1(C)CCC(CN2CCN(c3ccc(C(=O)NS(=O)(=O)c4ccc(NCC5CCOCC5)c([N+](=O)[O-])c4)c(Oc4cnc5[nH]ccc5c4)c3)CC2)=C(c2ccc(Cl)cc2)C1 [Venetoclax] + C=CCn1c(=O)c2cnc(Nc3ccc(N4CCN(C)CC4)cc3)nc2n1-c1cccc(C(C)(C)O)n1 [AZD1775] (first compound max 1 µM, partner max 1 µM) | 1 | 0.739 | 1 | 0.331 | 0.457 | 0.555 | 0.957 | 0.297 | 0.424 | 0.328 | 0.505 | 0.799 | 0.966 | 0.946 | 0.393 | 0.521 | 0.328 | 0.99 | 0.329 | 0.943 |
| Cn1cnc2c(F)c(Nc3ccc(Br)cc3Cl)c(C(=O)NOCCO)cc21 [Selumetinib] + CC(C)n1c(=O)n(C)c2cnc3cc(F)c(-c4ccc(OCCCN5CCCCC5)nc4)cc3c21 [AZD1390] (first compound max 10 µM, 7x7, partner max 0.3 µM) | 0.277 | 0.0295 | 0.157 | 0.138 | 0.0965 | 0.157 | 0.0301 | 0.141 | 0.237 | 0.111 | 0.437 | 0.606 | 0.305 | 0.0951 | 0.138 | 0.349 | 0.502 | 0.252 | 0.174 | 0.478 |
